Experiment: molar heat capacity at constant pressure; xn = mol fraction of the nth substance listed
Conditions: 100 kPa, Liquid, Small sample (50 mg) DSC

CCCC[N+](CCCC)(CCCC)CCCC.[Cl-] [tetrabutylammonium chloride] + OCC(O)CO
x1 = 0.17
Conditions	molar heat capacity at constant pressure [J/K/mol]
298.2 K	281.2
300.7 K	282.5
303.2 K	283.9
305.7 K	285.4
308.2 K	286.9
310.7 K	288.1
313.2 K	289.4
315.7 K	290.7
318.2 K	292
320.7 K	293.4
323.2 K	294.5
325.7 K	296.1
328.2 K	297.4
330.7 K	298.9
333.2 K	300.4
335.7 K	301.9
338.2 K	303.2
340.7 K	304.6
343.2 K	305.7
345.7 K	306.9
348.2 K	307.8
350.7 K	308.6
353.2 K	310.9

CCCC[N+](CCCC)(CCCC)CCCC.[Cl-] [tetrabutylammonium chloride] + OCCO
x1 = 0.25
Conditions	molar heat capacity at constant pressure [J/K/mol]
298.2 K	288.3
300.7 K	289.6
303.2 K	291
305.7 K	292.2
308.2 K	293.2
310.7 K	294.5
313.2 K	295.8
315.7 K	296.8
318.2 K	297.9
320.7 K	299.5
323.2 K	300.5
325.7 K	301.2
328.2 K	302.4
330.7 K	303.5
333.2 K	304.8
335.7 K	305.9
338.2 K	306.9
340.7 K	307.7
343.2 K	308.5
345.7 K	309.1
348.2 K	309.6
350.7 K	310.6
353.2 K	312.6

CCCC[N+](CCCC)(CCCC)CCCC.[Cl-] [tetrabutylammonium chloride] + OCCOCCOCCO
x1 = 0.5
Conditions	molar heat capacity at constant pressure [J/K/mol]
298.2 K	445
300.7 K	447.8
303.2 K	448.9
305.7 K	450.6
308.2 K	452.3
310.7 K	454.2
313.2 K	456.1
315.7 K	457.4
318.2 K	458.7
320.7 K	460.2
323.2 K	461.9
325.7 K	463
328.2 K	464.5
330.7 K	466.2
333.2 K	467.7
335.7 K	469.2
338.2 K	471.1
340.7 K	472.6
343.2 K	473.7
345.7 K	475.2
348.2 K	475.6
350.7 K	476
353.2 K	479.7

OCCOCCOCCO [triethylene glycol] + C[N+](C)(C)CCO.[Cl-]
x2 = 0.33
Conditions	molar heat capacity at constant pressure [J/K/mol]
298.15 K	299
300.65 K	300.3
303.15 K	301.5
305.65 K	302.8
308.15 K	303.7
310.65 K	304.5
313.15 K	304.7
315.65 K	304.6
318.15 K	304.6
320.65 K	304.3
323.15 K	304.3
325.65 K	304.9
328.15 K	305.8
330.65 K	306.7
333.15 K	307.4
335.65 K	308.6
338.15 K	309.4
340.65 K	309.9
343.15 K	310
345.65 K	311.8
348.15 K	312.2
350.65 K	312.4
353.15 K	314.6
